The supplement of paper PMC10307832

What was measured:
Experiment in all cases: relative viability (nuclei count vs DMSO), 5 days (fraction); higher = more cells survive
[1] = compound: O=C(C[C@H]1NCCC[C@@H]1O)Cn1cnc2cc(Br)c(Cl)cc2c1=O (racemic) [Halofuginone] + CC(=O)Nc1cccc(-n2c(=O)n(C3CC3)c(=O)c3c(Nc4ccc(I)cc4F)n(C)c(=O)c(C)c32)c1 [Trametinib] (partner 0.02 µM)
Outline: (§1)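 Medians of duplicate plates are given as relative viability. That measure is the nuclei count in treated wells divided by the count in vehicle wells. Counts were taken on 4× images of lung cancer cell lines in 1536-well plates, 5 days after pin-tool dosing the day after seeding with one drug alone or a fixed anchor-drug dose plus five library-drug doses (not always all listed) in √10 steps.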

[2] = compound: O=C(C[C@H]1NCCC[C@@H]1O)Cn1cnc2cc(Br)c(Cl)cc2c1=O (racemic) [Halofuginone] + C[C@@H](Oc1cc(-c2cnn(C3CCNCC3)c2)cnc1N)c1c(Cl)ccc(F)c1Cl [Crizotinib] (partner 1 µM)
Outline: as §1

[3] = compound: O=C(C[C@H]1NCCC[C@@H]1O)Cn1cnc2cc(Br)c(Cl)cc2c1=O (racemic) [Halofuginone] + NC(=O)Nc1cc(-c2cccc(F)c2)sc1C(=O)N[C@H]1CCCNC1 [AZD7762] (partner 0.2 µM)
Outline: as §1

[4] = compound: Nc1ncn([C@H]2C[C@H](O)[C@@H](CO)O2)c(=O)n1 [Decitabine] + CC(=O)c1c(C)c2cnc(Nc3ccc(N4CCNCC4)cn3)nc2n(C2CCCC2)c1=O [Palbociclib] (partner 0.5 µM)
Outline: as §1

Cell Line | relative viability ([1]; first compound 0.001 µM) | relative viability ([1]; first compound 0.003162 µM) | relative viability ([1]; first compound 0.01 µM) | relative viability ([1]; first compound 0.03162 µM) | relative viability ([1]; first compound 0.1 µM) | relative viability ([2]; first compound 0.001 µM) | relative viability ([2]; first compound 0.003162 µM) | relative viability ([2]; first compound 0.01 µM) | relative viability ([2]; first compound 0.03162 µM) | relative viability ([2]; first compound 0.1 µM) | relative viability ([3]; first compound 0.001 µM) | relative viability ([3]; first compound 0.003162 µM) | relative viability ([3]; first compound 0.01 µM) | relative viability ([3]; first compound 0.03162 µM) | relative viability ([3]; first compound 0.1 µM) | relative viability ([4]; first compound 0.04 µM) | relative viability ([4]; first compound 0.1265 µM) | relative viability ([4]; first compound 0.4 µM) | relative viability ([4]; first compound 1.265 µM) | relative viability ([4]; first compound 4 µM)
NCI-H1993 | 0.502 | 0.505 | 0.597 | 0.505 | 0.485 | 1.05 | 0.921 | 0.95 | 0.89 | 0.588 | 0.733 | 0.421 | 0.787 | 1.11 | 0.586 | 0.646 | 0.589 | 0.645 | 0.503 | 0.583
NCI-H2085 | 0.541 | 0.512 | 0.525 | 0.585 | 0.349 | 0.994 | 0.82 | 0.776 | 0.831 | 0.52 | 0.996 | 1.02 | 0.947 | 0.992 | 0.932 | 0.465 | 0.403 | 0.408 | 0.335 | 0.395
NCI-H2087 | 0.219 | 0.213 | 0.222 | 0.197 | 0.156 | 0.738 | 0.902 | 0.77 | 0.851 | 0.851 | 1.42 | 1.48 | 1.33 | 1.48 | 1.01 | 0.204 | 0.265 | 0.204 | 0.202 | 0.221
NCI-H2126 | 0.525 | 0.544 | 0.585 | 0.546 | 0.513 | 1.02 | 1.03 | 0.998 | 1.02 | 0.987 | 1.02 | 0.976 | 1.01 | 0.889 | 0.995 | 0.367 | 0.354 | 0.313 | 0.36 | 0.372
NCI-H2170 | 0.856 | 0.852 | 0.954 | 0.948 | 0.868 | 1.27 | 1.34 | 1.21 | 1.21 | 1 | 0.929 | 0.935 | 0.875 | 0.886 | 0.866 | 0.314 | 0.341 | 0.334 | 0.256 | 0.227
NCI-H2347 | 0.256 | 0.284 | 0.289 | 0.258 | 0.253 | 0.677 | 0.72 | 0.81 | 0.736 | 0.551 | 0.673 | 0.745 | 0.681 | 0.822 | 0.538 | 0.462 | 0.417 | 0.411 | 0.423 | 0.437
NCI-H2405 | 0.696 | 0.69 | 0.678 | 0.599 | 0.502 | 0.907 | 0.935 | 0.822 | 0.831 | 0.74 | 0.79 | 0.881 | 0.674 | 0.678 | 0.541 | 0.511 | 0.516 | 0.436 | 0.397 | 0.349
NCI-H3122 | 0.192 | 0.241 | 0.258 | 0.219 | 0.25 | 0.253 | 0.251 | 0.232 | 0.281 | 0.264 | 0.937 | 1.09 | 0.985 | 0.94 | 0.922 | 0.2 | 0.213 | 0.183 | 0.181 | 0.191
PC-3 [JPC-3] | 0.722 | 0.741 | 0.664 | 0.648 | 0.538 | 1.03 | 0.969 | 0.975 | 0.943 | 0.988 | 0.881 | 0.933 | 0.669 | 0.783 | 0.499 |  | 0.572 | 0.496 | 0.493 | 0.511
PC-14 | 0.809 | 0.618 | 0.702 | 0.154 | 0.0395 | 1 | 0.826 | 0.727 | 0.722 | 0.183 | 0.435 | 0.409 | 0.381 | 0.366 | 0.198 | 0.435 | 0.36 | 0.264 | 0.112 | 0.098
RERF-LC-KJ | 0.924 | 0.984 | 0.837 | 0.824 | 0.591 | 0.888 | 0.791 | 0.807 | 0.818 | 0.823 | 1.1 | 1.15 | 1.05 | 0.96 | 0.956 | 1.02 | 1.02 | 0.404 | 0.633 | 0.636
